Structures can show the parent of a compound that is named as a salt. Where two headings read alike, the source gives them in different places.
Target: SARS-CoV-2 3CLpro (Severe acute respiratory syndrome coronavirus 2, UniProt P0DTD1)
Experiment: biochemical
Assay type: biochemical
Set-up: Replicate_1 / Replicate_2 / mean / mean (LOPAC_screen_w_protease): unit not given here
Details: for inhibition at 5 µM: 4 h
[1] = sheet LOPAC_screen_w_protease, primary screen with protease, 5 µM, mean of two replicates
[2] = sheet LOPAC_screen_w_protease, primary screen with protease, 5 µM, replicate 1
[3] = sheet LOPAC_screen_w_protease, primary screen with protease, 5 µM, replicate 2
[4] = sheet LOPAC_screen_w_protease, LOPAC1280 primary screen at 5 µM, with protease, mean of the two replicates
[5] = sheet LOPAC_screen_w_protease, LOPAC1280 primary screen at 5 µM, with protease, replicate 1
[6] = sheet LOPAC_screen_w_protease, LOPAC1280 primary screen at 5 µM, with protease, replicate 2
[7] = sheet LOPAC_screen_w_protease, primary screen at 5 µM, mean of two replicates
[8] = sheet LOPAC_screen_w_protease, primary screen at 5 µM, replicate 1
[9] = sheet LOPAC_screen_w_protease, primary screen at 5 µM, replicate 2
[10] = LOPAC1280 primary screen with protease, 5 µM compound, mean of the two replicates
[11] = LOPAC1280 primary screen with protease, 5 µM compound, replicate 1
[12] = LOPAC1280 primary screen with protease, 5 µM compound, replicate 2
[13] = sheet LOPAC_screen_w_protease, primary screen with protease, compound at 5 µM, mean of two replicates
[14] = sheet LOPAC_screen_w_protease, primary screen with protease, compound at 5 µM, replicate 1
[15] = sheet LOPAC_screen_w_protease, primary screen with protease, compound at 5 µM, replicate 2
[16] = sheet LOPAC_screen_w_protease, LOPAC1280 at 5 µM, mean of two replicates
[17] = sheet LOPAC_screen_w_protease, LOPAC1280 at 5 µM, replicate 1
[18] = sheet LOPAC_screen_w_protease, LOPAC1280 at 5 µM, replicate 2
[19] = sheet LOPAC_screen_w_protease, primary screen with protease, mean of two replicates
[20] = sheet LOPAC_screen_w_protease, primary screen with protease, replicate 1
[21] = sheet LOPAC_screen_w_protease, primary screen with protease, replicate 2
[22] = sheet LOPAC_screen_w_protease, LOPAC1280 primary screen at 5 µM, with protease, mean of the two replicates, read-out: mean
[23] = sheet LOPAC_screen_w_protease, LOPAC1280 primary screen at 5 µM, with protease, replicate 1, read-out: Replicate_1
[24] = sheet LOPAC_screen_w_protease, LOPAC1280 primary screen at 5 µM, with protease, replicate 2, read-out: Replicate_2

For `CC(C)(C)NC[C@H](O)COc1nsnc1N1CCOCC1.O=C(O)/C=C\C(=O)O` [S(-)-Timolol maleate], the mean [1] was 0.01613, the Replicate_1 [2] was 1.756 and the Replicate_2 [3] was -1.724.
With `N[C@@H](Cn1ccc(=O)[nH]c1=O)C(=O)O` [S(-)-Willardiine] the mean [4] was 0.8515, the Replicate_1 [5] was 0.8129 and the Replicate_2 [6] was 0.89.
Work on `Brc1ccc([C@H]2CN3CCSC3=N2)cc1.O=C(O)C(=O)O` [S(-)-p-Bromotetramisole oxalate] yielded a mean [1] of -0.07526, a Replicate_1 [2] of 0.5493 and a Replicate_2 [3] of -0.6998.
With `N[C@@H](Cn1cc(I)c(=O)[nH]c1=O)C(=O)O` [S-5-Iodowillardiine] the “mean (LOPAC screen with protease)” value [7] was 6.582, the “Replicate_1 (LOPAC screen with protease)” value [8] was 5.993 and the “Replicate_2 (LOPAC screen with protease)” value [9] was 7.171.
Compound `Nc1nc(SCc2ccc([N+](=O)[O-])cc2)c2ncn([C@@H]3O[C@H](CO)[C@@H](O)[C@H]3O)c2n1` [S-(4-Nitrobenzyl)-6-thioguanosine] has a mean [1] of -0.2707, a Replicate_1 [2] of 0.3471 and a Replicate_2 [3] of -0.8885.
Compound `O=[N+]([O-])c1ccc(CSc2ncnc3c2ncn3[C@@H]2O[C@H](CO)[C@@H](O)[C@H]2O)cc1` [S-(4-Nitrobenzyl)-6-thioinosine] has a mean (sheet LOPAC_screen_w_protease, LOPAC1280 primary screen with protease, 5 µM compound, mean of the two replicates) of 4.84, a Replicate_1 (sheet LOPAC_screen_w_protease, LOPAC1280 primary screen with protease, 5 µM compound, replicate 1) of 5.452 and a Replicate_2 (sheet LOPAC_screen_w_protease, LOPAC1280 primary screen with protease, 5 µM compound, replicate 2) of 4.228.
In the case of `C[C@@](Cc1ccc(O)c(O)c1)(NN)C(=O)O` [S-(-)-Carbidopa], the “mean (LOPAC screen with protease)” value [7] is reported as 17.4897, the “Replicate_1 (LOPAC screen with protease)” value [8] is reported as 19.273 and the “Replicate_2 (LOPAC screen with protease)” value [9] is reported as 15.7065.
For `CCc1cc(Cl)c(O)c(C(=O)NC[C@@H]2CCCN2CC)c1OC.Cl` [S-(-)-Eticlopride hydrochloride], the “mean (LOPAC_screen_w_protease)” value [10] was 2.005, the “Replicate_1 (LOPAC_screen_w_protease)” value [11] was 2.376 and the “Replicate_2 (LOPAC_screen_w_protease)” value [12] was 1.635.
For `[N-]=[N+]=Nc1ccc(C(=O)CSC[C@H](NC(=O)CC[C@H](N)C(=O)O)C(=O)NCC(=O)O)cc1` [S-(p-Azidophenacyl)glutathione], the mean [13] was 2.647, the Replicate_1 [14] was 2.672 and the Replicate_2 [15] was 2.621.
`Br.CCSC(=N)N` [S-Ethylisothiourea hydrobromide] was tested, and the mean [16] was 1.099, the Replicate_1 [17] was 2.674 and the Replicate_2 [18] was -0.4768.
For `CSC(N)=NCCC[C@H](N)C(=O)O` [S-Methyl-L-thiocitrulline acetate], the inhibition at 5 µM (sheet LOPAC_screen_w_protease, primary screen with protease, compound at 5 µM, mean of two replicates, read-out: mean) was 2.62%, the inhibition at 5 µM (sheet LOPAC_screen_w_protease, primary screen with protease, compound at 5 µM, replicate 1, read-out: Replicate_1) was 2.21% and the inhibition at 5 µM (sheet LOPAC_screen_w_protease, primary screen with protease, compound at 5 µM, replicate 2, read-out: Replicate_2) was 3.04%.
With `Cl.Cn1ccc2cc(NC(=O)Nc3cccnc3)ccc21` [SB 200646 hydrochloride] the mean [13] was 2.882, the Replicate_1 [14] was 2.958 and the Replicate_2 [15] was 2.805.
`Oc1ccc(-c2nc(-c3ccncc3)c(-c3ccc(F)cc3)[nH]2)cc1` [SB 202190] gave an inhibition at 5 µM (sheet LOPAC_screen_w_protease, primary screen with protease, mean of two replicates, read-out: mean) of 2.45%, an inhibition at 5 µM (sheet LOPAC_screen_w_protease, primary screen with protease, replicate 1, read-out: Replicate_1) of 1.31% and an inhibition at 5 µM (sheet LOPAC_screen_w_protease, primary screen with protease, replicate 2, read-out: Replicate_2) of 3.6%.
Work on `O=C(OCCN1CCCCC1)c1c[nH]c2ccccc12` [SB 203186] yielded a mean [13] of 2.639, a Replicate_1 [14] of 2.947 and a Replicate_2 [15] of 2.331.
`CCCCN1CCC(COC(=O)c2cc(Cl)c(N)c3c2OCCO3)CC1.Cl` [SB 204070 hydrochloride] was tested, and the mean [19] was 2.545, the Replicate_1 [20] was 1.507 and the Replicate_2 [21] was 3.5833.
Compound `Cc1cc(NC(=O)Nc2ccc3c(ccn3C)c2)sn1` [SB 204741] has a mean [1] of 0.4215, a Replicate_1 [2] of 0.3793 and a Replicate_2 [3] of 0.4638.
`CC#CCOC(=O)c1c(C)nc2sc3c(c2c1N)CCC(O)C3` (stereo not drawn) [SB 205384] gave a mean (sheet LOPAC_screen_w_protease, LOPAC1280 primary screen at 5 µM, with protease, mean of two replicates) of -1.612, a Replicate_1 [5] of 2.126 and a Replicate_2 [6] of -5.349.
`Cn1ccc2cc3c(cc21)CCN3C(=O)Nc1cccnc1` [SB 206553 hydrochloride] gave a mean [13] of 2.821, a Replicate_1 [14] of 3.909 and a Replicate_2 [15] of 1.733.
For `Cn1cc(C2=C(c3ccc(Cl)cc3Cl)C(=O)NC2=O)c2ccccc21` [SB 216763], the inhibition at 5 µM (sheet LOPAC_screen_w_protease, primary screen at 5 µM, mean of two replicates, read-out: mean (LOPAC screen with protease)) was 6.45%, the inhibition at 5 µM (sheet LOPAC_screen_w_protease, primary screen at 5 µM, replicate 1, read-out: Replicate_1 (LOPAC screen with protease)) was 5.91% and the inhibition at 5 µM (sheet LOPAC_screen_w_protease, primary screen at 5 µM, replicate 2, read-out: Replicate_2 (LOPAC screen with protease)) was 6.98%.
Work on `COC(=O)[C@H](NC(=O)c1cc(-c2ccccc2)nc2ccccc12)c1ccccc1` [SB 218795] yielded a mean [4] of 0.7338, a Replicate_1 [5] of 2.781 and a Replicate_2 [6] of -1.313.
For `CC[C@H](NC(=O)c1c(C)c(-c2ccccc2)nc2ccccc12)c1ccccc1` [SB 222200], the inhibition at 5 µM (LOPAC1280 primary screen with protease, 5 µM compound, replicate 1, read-out: Replicate_1 (LOPAC_screen_w_protease)) was 1.71%, the inhibition at 5 µM (LOPAC1280 primary screen with protease, 5 µM compound, replicate 2, read-out: Replicate_2 (LOPAC_screen_w_protease)) was 1.28% and the “mean (LOPAC_screen_w_protease)” value (LOPAC1280 primary screen with protease, 5 µM compound, mean of two replicates) was 1.495.
For `Cc1nc(-c2ccc(-c3ccc(C(=O)N4CCc5cc6c(cc54)C4(CCN(C)CC4)CO6)cc3)c(C)c2)no1.Cl` [SB 224289 hydrochloride], the mean [16] was 1.002, the Replicate_1 [17] was 2.397 and the Replicate_2 [18] was -0.3926.
Compound `COc1cc2c(cc1C(F)(F)F)N(C(=O)Nc1cc(F)cc(-c3cccnc3)c1)CC2` [SB 228357] has a mean [19] of 2.5367, a Replicate_1 [20] of 3.509 and a Replicate_2 [21] of 1.565.
For `CC1CCN(CC[C@H]2CCCN2S(=O)(=O)c2cccc(O)c2)CC1.Cl` [SB 269970 hydrochloride], the “mean (LOPAC_screen_w_protease)” value [10] was 2.103, the “Replicate_1 (LOPAC_screen_w_protease)” value [11] was 1.356 and the “Replicate_2 (LOPAC_screen_w_protease)” value [12] was 2.851.
`COc1cccc(NC(=O)/C=C/c2ccc(Cl)cc2)c1` [SB-366791] showed a mean [19] of 2.336, a Replicate_1 [20] of 3.003 and a Replicate_2 [21] of 1.669.
For `CC(=O)NNC(=O)N1Cc2ccccc2Oc2ccc(Cl)cc21` [SC 19220], the mean [1] was 0.1868, the Replicate_1 [2] was 1.1062 and the Replicate_2 [3] was -0.7326.
Compound `Cc1nc2c(OCc3ccccc3)cccn2c1CC#N` [SCH-28080] has a mean [19] of 2.443, a Replicate_1 [20] of 2.6463 and a Replicate_2 [21] of 2.24.
`Br.CN=c1nc(-c2ccccc2)n(-c2ccccc2)s1` [SCH-202676 hydrobromide] was tested, and the “mean (LOPAC screen with protease)” value [7] was 100.647, the “Replicate_1 (LOPAC screen with protease)” value [8] was 100.647 and the “Replicate_2 (LOPAC screen with protease)” value [9] was 100.647.
In the case of `CCN(CC)CCOC(=O)c1cc(Cl)c(N)cc1OC.Cl` [SDZ-205,557 hydrochloride], the mean [13] is reported as 2.714, the Replicate_1 [14] is reported as 3.796 and the Replicate_2 [15] is reported as 1.633.
For `Cc1ccc(O)c(N=Nc2ccccc2)n1` [SIB 1757], the mean [19] was 2.268, the Replicate_1 [20] was 3.235 and the Replicate_2 [21] was 1.301.
In the case of `Cc1cccc(/C=C/c2ccccc2)n1` [SIB 1893], the mean [1] is reported as 0.4194, the Replicate_1 [2] is reported as 2.242 and the Replicate_2 [3] is reported as -1.403.
In the case of `Br.CN1CCc2cc(O)c(O)cc2C(c2ccccc2)C1` (stereo not drawn) [SKF 75670 hydrobromide], the “mean (LOPAC screen with protease)” value [7] is reported as 25.5455, the “Replicate_1 (LOPAC screen with protease)” value [8] is reported as 25.015 and the “Replicate_2 (LOPAC screen with protease)” value [9] is reported as 26.0759.
`Br.CN1CCc2c(cc(O)c(O)c2Cl)C(c2cccc(Cl)c2)C1` (stereo not drawn) [SKF 83565 hydrobromide] was tested, and the “mean (LOPAC screen with protease)” value [7] was 22.1474, the “Replicate_1 (LOPAC screen with protease)” value [8] was 23.5852 and the “Replicate_2 (LOPAC screen with protease)” value [9] was 20.7095.
For `Br.Cc1cccc(C2CN(C)CCc3c2cc(O)c(O)c3Cl)c1` (stereo not drawn) [SKF 83959 hydrobromide], the “mean (LOPAC screen with protease)” value [7] was 8.7281, the “Replicate_1 (LOPAC screen with protease)” value [8] was 9.112 and the “Replicate_2 (LOPAC screen with protease)” value [9] was 8.344.
`CN1CCc2cccc(Cl)c2CC1` [SKF 86466] showed an inhibition at 5 µM [22] of 0.452%, an inhibition at 5 µM [23] of 0.136% and an inhibition at 5 µM [24] of 0.768%.
Work on `Cl.O=C(O)C1CCCN(CCC=C(c2ccccc2)c2ccccc2)C1` (stereo not drawn) [SKF 89976A hydrochloride] yielded a mean [4] of 0.532, a Replicate_1 [5] of 1.548 and a Replicate_2 [6] of -0.4841.
In the case of `CN(C)CCCCSC(=N)N.Cl.Cl` [SKF 91488 dihydrochloride], the “mean (LOPAC screen with protease)” value [7] is reported as 12.1431, the “Replicate_1 (LOPAC screen with protease)” value [8] is reported as 13.4504 and the “Replicate_2 (LOPAC screen with protease)” value [9] is reported as 10.8358.
Work on `CN/C(=N\c1ccc(C2=NNC(=O)CC2C)cc1)NC#N` (stereo not drawn) [SKF 94836] yielded an inhibition at 5 µM [22] of 0.836%, an inhibition at 5 µM [23] of 1.39% and an inhibition at 5 µM [24] of 0.284%.

Source: paper PMC7587356, “High-Throughput Screening for Inhibitors of the SARS-CoV-2 Protease Using a FRET-Biosensor” (Molecules, 2020)
